Source: article PMC8509773, “3-Pyridinylidene Derivatives of Chemically Modified Lupane and Ursane Triterpenes as Promising Anticancer Agents by Targeting Apoptosis” (International Journal of Molecular Sciences, 2021)

Assays:
Assay in all cases: NCI-60 SRB screening (one-dose and five-dose)
Format in all cases: cell-based, human
A498 = settings: 48 h
Procedure: (§1) The compounds were added at a single concentration and the cell cultures were incubated for 48 h. The end point determinations were made with a protein binding dye, sulforhodamine B (SRB). […] The percentage of growth was evaluated spectrophotometrically versus controls not treated with test agents after 48-h exposure and using SRB protein assay to estimate cell viability or growth. […] Furthermore, mean graph midpoints (MG_MID) were calculated for each of the parameters, giving an average activity parameter over all cell lines for the tested compound. For the MG_MID calculation, insensitive cell lines were included with the highest concentration tested.

BT-549 = settings: 48 h
Procedure: as §1

CAKI-1 = settings: 48 h
Procedure: as §1

CCRF-CEM = settings: 48 h
Procedure: as §1

COLO 205 = settings: 48 h
Procedure: as §1

DU-145 = settings: 48 h
Procedure: as §1

EKVX = settings: 48 h
Procedure: as §1

HCC-2998 = settings: 48 h
Procedure: as §1

HCT-15 = settings: 48 h
Procedure: as §1

HL-60(TB) = settings: 48 h
Procedure: as §1

HOP-62 = settings: 48 h
Procedure: as §1

HOP-92 = settings: 48 h
Procedure: as §1

HT29 = settings: 48 h
Procedure: as §1

K-562 = settings: 48 h
Procedure: as §1

LOX IMVI = settings: 48 h
Procedure: as §1

M14 = settings: 48 h
Procedure: as §1

MDA-MB-435 = settings: 48 h
Procedure: as §1

MDA-MB-468 = settings: 48 h
Procedure: as §1

MOLT-4 = settings: 48 h
Procedure: as §1

NCI-H226 = settings: 48 h
Procedure: as §1

NCI-H23 = settings: 48 h
Procedure: as §1

NCI-H322M = settings: 48 h
Procedure: as §1

NCI-H460 = settings: 48 h
Procedure: as §1

OVCAR-3 = settings: 48 h
Procedure: as §1

OVCAR-5 = settings: 48 h
Procedure: as §1

OVCAR-8 = settings: 48 h
Procedure: as §1

RPMI-8226 = settings: 48 h
Procedure: as §1

RXF 393 = settings: 48 h
Procedure: as §1

SF-268 = settings: 48 h
Procedure: as §1

SF-295 = settings: 48 h
Procedure: as §1

SK-MEL-28 = settings: 48 h
Procedure: as §1

SK-MEL-2 = settings: 48 h
Procedure: as §1

SK-MEL-5 = settings: 48 h
Procedure: as §1

SK-OV-3 = settings: 48 h
Procedure: as §1

SNB-19 = settings: 48 h
Procedure: as §1

SNB-75 = settings: 48 h
Procedure: as §1

SR = settings: Homo sapiens, five dose 0.01–100 μM, 48 h
Procedure: as §1

TK-10 = settings: 48 h
Procedure: as §1

UO-31 = settings: 48 h
Procedure: as §1

[1] = Homo sapiens, five dose 0.01–100 μM

## C[C@H]1[C@@H]2[C@H]3CC[C@@H]4[C@@]5(C)C/C(=C\c6cccnc6)C(=O)C(C)(C)[C@@H]5CC[C@@]4(C)[C@]3(C)CC[C@]23CO[C@@]1(C)[C@@H](C(=O)/C=C/c1cccnc1)C3 [Compound 6, 3-Oxo-2-(3-pyridinylidene)-21-[3-(2E-pyridinyl)-prop-2-en-1-one]-20β,28-epoxy-18α,19βH-ursane]
A498; A498, 10 μM
  Growth Percent: −59.07%
A498; Homo sapiens, A498, five dose 0.01–100 μM
  GI50: 780 nM
BT-549; BT-549, 10 μM
  Growth Percent: −20.09%
BT-549; Homo sapiens, BT-549, five dose 0.01–100 μM
  GI50: 730 nM
CAKI-1; CAKI-1, 10 μM
  Growth Percent: 9.32%
CAKI-1; Homo sapiens, CAKI-1, five dose 0.01–100 μM
  GI50: 1420 nM
CCRF-CEM; 10 μM
  Growth Percent: 17.92%
CCRF-CEM; [1]
  GI50: 170 nM
COLO 205; COLO 205, 10 μM
  Growth Percent: −56.84%
COLO 205; Homo sapiens, COLO 205, five dose 0.01–100 μM
  GI50: 1430 nM
DU-145; DU-145, 10 μM
  Growth Percent: −28.80%
DU-145; Homo sapiens, DU-145, five dose 0.01–100 μM
  GI50: 930 nM
EKVX; 10 μM
  Growth Percent: −1.58%
EKVX; [1]
  GI50: 1720 nM
HCC-2998; HCC-2998, 10 μM
  Growth Percent: −67.18%
HCC-2998; Homo sapiens, HCC-2998, five dose 0.01–100 μM
  GI50: 890 nM
HCT-15; HCT-15, 10 μM
  Growth Percent: −15.30%
HCT-15; Homo sapiens, HCT-15, five dose 0.01–100 μM
  GI50: 1110 nM
HL-60(TB); 10 μM
  Growth Percent: 14.49%
HL-60(TB); [1]
  GI50: 560 nM
HOP-62; HOP-62, 10 μM
  Growth Percent: −13.55%
HOP-62; Homo sapiens, HOP-62, five dose 0.01–100 μM
  GI50: 1560 nM
HOP-92; HOP-92, 10 μM
  Growth Percent: −19.97%
HOP-92; Homo sapiens, HOP-92, five dose 0.01–100 μM
  GI50: 820 nM
HT29; HT29, 10 μM
  Growth Percent: 26.36%
HT29; Homo sapiens, HT-29, HT29, five dose 0.01–100 μM
  GI50: 1500 nM
K-562; Homo sapiens, K562, K-562, five dose 0.01–100 μM
  GI50: 30 nM
K-562; K-562, 10 μM
  Growth Percent: 6.51%
LOX IMVI; 10 μM
  Growth Percent: −85.19%
LOX IMVI; [1]
  GI50: 890 nM
M14; Homo sapiens, M14, five dose 0.01–100 μM
  GI50: 1740 nM
M14; M14, 10 μM
  Growth Percent: −20.11%
MDA-MB-435; Homo sapiens, MDA-MB-435, MDA-B-435, five dose 0.01–100 μM
  GI50: 1090 nM
MDA-MB-435; MDA-MB-435, 10 μM
  Growth Percent: −7.30%
MDA-MB-468; Homo sapiens, MDA-MB-468, five dose 0.01–100 μM
  GI50: 860 nM
MDA-MB-468; MDA-MB-468, 10 μM
  Growth Percent: −5.83%
MOLT-4; Homo sapiens, MOLT-4, five dose 0.01–100 μM
  GI50: 170 nM
MOLT-4; MOLT-4, 10 μM
  Growth Percent: 16.72%
NCI-H226; Homo sapiens, NCI-H226, five dose 0.01–100 μM
  GI50: 1020 nM
NCI-H226; NCI-H226, 10 μM
  Growth Percent: −13.51%
NCI-H23; Homo sapiens, NCI-H23, five dose 0.01–100 μM
  GI50: 1040 nM
NCI-H23; NCI-H23, 10 μM
  Growth Percent: −48.71%
NCI-H322M; 10 μM
  Growth Percent: 46.39%
NCI-H322M; [1]
  GI50: 1820 nM
NCI-H460; Homo sapiens, NCI-H460, five dose 0.01–100 μM
  GI50: 890 nM
NCI-H460; NCI-H460, 10 μM
  Growth Percent: −45.33%
OVCAR-3; Homo sapiens, OVCAR-3, five dose 0.01–100 μM
  GI50: 880 nM
OVCAR-3; OVCAR-3, 10 μM
  Growth Percent: −43.66%
OVCAR-5; Homo sapiens, OVCAR-5, five dose 0.01–100 μM
  GI50: 1460 nM
OVCAR-5; OVCAR-5, 10 μM
  Growth Percent: −4.00%
OVCAR-8; Homo sapiens, OVCAR-8, five dose 0.01–100 μM
  GI50: 1600 nM
OVCAR-8; OVCAR-8, 10 μM
  Growth Percent: −13.55%
RPMI-8226; Homo sapiens, RPMI-8226, five dose 0.01–100 μM
  GI50: 160 nM
RPMI-8226; RPMI-8226, 10 μM
  Growth Percent: 5.06%
RXF 393; Homo sapiens, RXF 393, five dose 0.01–100 μM
  GI50: 830 nM
RXF 393; RXF 393, 10 μM
  Growth Percent: −91.75%
SF-268; Homo sapiens, SF-268, five dose 0.01–100 μM
  GI50: 1310 nM
SF-268; SF-268, 10 μM
  Growth Percent: 7.10%
SF-295; Homo sapiens, SF-295, five dose 0.01–100 μM
  GI50: 1690 nM
SF-295; SF-295, 10 μM
  Growth Percent: 6.07%
SK-MEL-28; Homo sapiens, SK-MEL-28, five dose 0.01–100 μM
  GI50: 940 nM
SK-MEL-28; SK-MEL-28, 10 μM
  Growth Percent: −17.77%
SK-MEL-2; Homo sapiens, SK-MEL-2, five dose 0.01–100 μM
  GI50: 1300 nM
SK-MEL-2; SK-MEL-2, 10 μM
  Growth Percent: −25.53%
SK-MEL-5; Homo sapiens, SK-MEL-5, five dose 0.01–100 μM
  GI50: 820 nM
SK-MEL-5; SK-MEL-5, 10 μM
  Growth Percent: −82.25%
SK-OV-3; Homo sapiens, SK-OV-3, five dose 0.01–100 μM
  GI50: 5.9 µM
SK-OV-3; SK-OV-3, 10 μM
  Growth Percent: 58.93%
SNB-19; Homo sapiens, SNB-19, five dose 0.01–100 μM
  GI50: 850 nM
SNB-19; SNB-19, 10 μM
  Growth Percent: 2.48%
SNB-75; Homo sapiens, SNB-75, five dose 0.01–100 μM
  GI50: 1020 nM
SNB-75; SNB-75, 10 μM
  Growth Percent: 32.69%
SR
  GI50: 160 nM
TK-10; Homo sapiens, TK-10, five dose 0.01–100 μM
  GI50: 1830 nM
TK-10; TK-10, 10 μM
  Growth Percent: −14.49%
UO-31; Homo sapiens, UO-31, five dose 0.01–100 μM
  GI50: 640 nM
UO-31; UO-31, 10 μM
  Growth Percent: −97.34%
